Results from PMC5429603, “Discovery and characterization of verinurad, a potent and specific inhibitor of URAT1 for the treatment of hyperuricemia and gout” (Scientific Reports, 2017).
Residue numbers refer to the chain shown, from its start. Where two headings read alike, the source gives them in different places.

Key:
human URAT1 [1] = biological target: T1, human URAT1 (Homo sapiens, UniProt Q96S37); set-up: host or cells: HEK-293T; method as in Tan et al., 2016; settings: cited from earlier work
T1 sequence (Q96S37 1-553): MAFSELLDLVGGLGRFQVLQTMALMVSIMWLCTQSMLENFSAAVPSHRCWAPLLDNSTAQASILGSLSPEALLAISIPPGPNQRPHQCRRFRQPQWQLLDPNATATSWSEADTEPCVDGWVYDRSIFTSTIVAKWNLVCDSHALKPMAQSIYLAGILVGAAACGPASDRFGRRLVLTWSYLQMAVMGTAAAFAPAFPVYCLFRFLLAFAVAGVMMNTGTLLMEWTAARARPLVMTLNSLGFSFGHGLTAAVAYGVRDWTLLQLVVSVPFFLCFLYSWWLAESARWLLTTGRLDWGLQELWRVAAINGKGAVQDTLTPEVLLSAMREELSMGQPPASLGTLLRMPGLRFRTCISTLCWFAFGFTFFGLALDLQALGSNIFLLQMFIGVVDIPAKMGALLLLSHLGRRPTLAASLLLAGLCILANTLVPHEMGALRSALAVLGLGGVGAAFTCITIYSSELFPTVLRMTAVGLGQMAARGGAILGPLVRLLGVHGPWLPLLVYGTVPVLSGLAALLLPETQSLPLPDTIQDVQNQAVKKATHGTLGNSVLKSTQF

Rat URAT1-N35S/Y365F = biological target: T2, Rat URAT1-N35S/Y365F (Rattus norvegicus, UniProt Q3ZAV1, N35S/Y365F); test: Uric acid transport kinetics, rat URAT1-N35S/Y365F; format: cell-based
T2 construct: expressed in transfected cells; host or cells: HEK-293T
Method: (§1) HEK-293T cells were maintained in DMEM/high glucose/L-glutamine/HEPES supplemented with 1 mM sodium pyruvate (Life Technologies) and 10% FBS (PAA Laboratories) at 37 °C in 5% CO2. To express URAT1, OAT4 or OAT1, plasmids were reverse transfected into HEK-293T cells. DNA (10 µg) was mixed with 30 µl of DreamFect Gold (Boca Scientific) in 2 ml OptiMem (Life Technologies). After 20 minutes, 18 ml of media containing 2 × 10^7 cells in suspension was added and mixed, and 200 µl per well were plated onto white clear-bottomed poly-D-lysine coated 96-well plates (BD Biosciences). The cells were assayed the following day.
(§2) URAT1 and OAT4 activity assays were performed in assay buffer consisting of 25 mM MES pH 5.5 (from a 1 M MES solution [Sigma] adjusted to pH 5.5 with sodium hydroxide), 125 mM sodium gluconate, 4.8 mM potassium gluconate, 1.2 mM monobasic potassium phosphate, 1.2 mM magnesium sulfate, 1.3 mM calcium gluconate and 5.6 mM glucose. URAT1 inhibitors were serially diluted into assay buffer and added to the cells for 5 minutes prior to addition of substrate. URAT1-expressing cells were incubated with 100 µM ^14C-uric acid for 10 minutes and OAT4-expressing cells were incubated with 20 µM carboxyfluorescein (Life Technologies, Inc.) for 5 minutes. […] Each treatment was measured in triplicate.

Rat URAT1-N35S = biological target: T3, Rat URAT1-N35S (Rattus norvegicus, UniProt Q3ZAV1, N35S); test: Uric acid transport kinetics, rat URAT1-N35S; format: cell-based
T3 construct: expressed in transfected cells; host or cells: HEK-293T

rat URAT1-Y365F [2] = biological target: T4, rat URAT1-Y365F (Rattus norvegicus, UniProt Q3ZAV1, Y365F); set-up: method as in Tan et al., 2016; settings: ref Tan et al., 2016; cited from earlier work
T4 construct: expressed in transfected cells; host or cells: HEK-293T
T4 sequence (Q3ZAV1 1-553 Y365F): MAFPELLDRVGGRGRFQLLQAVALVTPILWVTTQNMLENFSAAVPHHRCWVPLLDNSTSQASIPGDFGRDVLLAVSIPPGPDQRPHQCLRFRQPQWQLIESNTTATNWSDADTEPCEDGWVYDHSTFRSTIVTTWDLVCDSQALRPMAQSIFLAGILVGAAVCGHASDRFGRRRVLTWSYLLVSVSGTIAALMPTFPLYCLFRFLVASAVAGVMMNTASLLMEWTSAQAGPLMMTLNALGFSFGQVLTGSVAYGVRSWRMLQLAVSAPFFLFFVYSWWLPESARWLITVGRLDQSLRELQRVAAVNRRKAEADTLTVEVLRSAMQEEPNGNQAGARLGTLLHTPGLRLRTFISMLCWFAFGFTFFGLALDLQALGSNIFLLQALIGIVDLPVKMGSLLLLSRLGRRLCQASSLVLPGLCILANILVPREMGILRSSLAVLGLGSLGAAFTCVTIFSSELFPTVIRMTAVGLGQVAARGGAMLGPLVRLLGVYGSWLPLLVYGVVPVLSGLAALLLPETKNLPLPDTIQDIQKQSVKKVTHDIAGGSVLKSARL

rat URAT1 = biological target: T5, rat URAT1 (Rattus norvegicus, UniProt Q3ZAV1); set-up: method as in Tan et al., 2016; settings: cited from earlier work
T5 construct: host or cells: HEK-293T
T5 sequence (Q3ZAV1 1-553): T4 sequence (Q3ZAV1 1-553 Y365F) with F365Y

rat URAT1-Y365F [3] = biological target: T4, rat URAT1-Y365F; test: Uric acid transport kinetics, rat URAT1-Y365F; format: cell-based
human URAT1 [4] = biological target: T1, human URAT1; test: Uric acid transport kinetics, human URAT1; format: cell-based; set-up: host or cells: HEK-293T; settings: human URAT1 vs rat URAT1
Method: as §1, §2

human URAT1 [5] = biological target: T1, human URAT1; test: URAT1 activity assay (14C-uric acid transport), human URAT1; format: cell-based; set-up: host or cells: HEK-293T; settings: human URAT1 wild type in HEK-293T; 100 µM 14C-uric acid, pH 5.5; read-out: IC50, inhibition of transport activity
Method: as §1
(§3) URAT1 and OAT4 activity assays were performed in assay buffer consisting of 25 mM MES pH 5.5 (from a 1 M MES solution [Sigma] adjusted to pH 5.5 with sodium hydroxide), 125 mM sodium gluconate, 4.8 mM potassium gluconate, 1.2 mM monobasic potassium phosphate, 1.2 mM magnesium sulfate, 1.3 mM calcium gluconate and 5.6 mM glucose. URAT1 inhibitors were serially diluted into assay buffer and added to the cells for 5 minutes prior to addition of substrate. URAT1-expressing cells were incubated with 100 µM ^14C-uric acid for 10 minutes and OAT4-expressing cells were incubated with 20 µM carboxyfluorescein (Life Technologies, Inc.) for 5 minutes. Cells were then washed three times in 25 mM MES pH 5.5/125 mM sodium gluconate, and solubilized in Ultima Gold (Perkin Elmer) prior to liquid scintillation counting. Each treatment was measured in triplicate.

human URAT1 h-F449Y = biological target: T6, human URAT1 h-F449Y (Homo sapiens, UniProt Q96S37, F449Y); test: URAT1 activity assay, h-F449Y; format: cell-based
T6 construct: expressed in transfected cells; host or cells: HEK-293T
T6 sequence (Q96S37 1-553 F449Y): T1 sequence (Q96S37 1-553) with F449Y
From the text: (§4) Human URAT1 (GenBank BC053348.1, Homo sapiens SLC22A12), rat URAT1 (NCBI NM_001034943.1, Rattus norvegicus Slc22a12) and human OAT4 (NCBI NM_018484.2, Homo sapiens SLC22A11) genes were purchased from Origene Technologies, Inc. and subcloned into pCMV6/neo using NotI. Where indicated, controls transfections used pCMV6/neo. Mutants were produced by site-directed mutagenesis using the QuikChange Lightning Multi Site-Directed Mutagenesis Kit (Agilent Technologies). […] Mutagenic primer sequences are provided in ref. [15] and mutagenic primer sequences for previously unreported mutants shown in Supplementary Table 1. All constructs used in this study were untagged. Human OAT1 was purchased from Fisher Scientific (catalog # MHS1010–7508183 in pSPORT6, NCBI NM_153276.2, Homo sapiens SLC22A6).
as §1, §3

human URAT1 h-R477K = biological target: T7, human URAT1 h-R477K (Homo sapiens, UniProt Q96S37, R477K); test: URAT1 activity assay, h-R477K; format: cell-based
T7 construct: expressed in transfected cells; host or cells: HEK-293T
T7 sequence (Q96S37 1-553 R477K): T1 sequence (Q96S37 1-553) with R477K
From the text: as §4, §1, §3

human URAT1 h-F241Y = biological target: T8, human URAT1 h-F241Y (Homo sapiens, UniProt Q96S37, F241Y); test: URAT1 activity assay, h-F241Y; format: cell-based
T8 construct: expressed in transfected cells; host or cells: HEK-293T
T8 sequence (Q96S37 1-553 F241Y): T1 sequence (Q96S37 1-553) with F241Y
From the text: as §4, §1, §3

human URAT1 [6] = biological target: T1, human URAT1; test: URAT1 binding assay with 3H-verinurad, human URAT1 membranes; settings: for mode of inhibition of 3H-verinurad binding: human URAT1 membranes
Method: Membranes were prepared from cells transfected on the previous day with URAT1 expression constructs. Cells (5–10 × 10^8) were harvested in 1 ml ice-cold binding buffer (25 mM HEPES pH 7.3, 125 mM sodium gluconate) containing complete, EDTA-free protease inhibitor cocktail (Sigma). Cells were lysed with 100 strokes in a 2 ml dounce homogenizer using a tight-fitting “B” stem. Lysates were transferred to 1.5 mL Eppendorf tubes and centrifuged at 250 rcf for 5 minutes at 2 °C, and supernatants were transferred to fresh tubes and centrifuged again at 18,000 rcf for 20 minutes at 2 °C. The pellets (membrane fractions) were resuspended in 1 ml of ice-cold binding buffer containing protease inhibitors and frozen at −80 °C. Protein was measured using the Bio-Rad protein assay dye reagent concentrate.
Samples were then rapidly filtered through 25 mm glass fiber/1.2 µM PES 96-well filter plates (Corning FiltrEX 3510), and washed once with 200 µl ice-cold binding buffer. The plates were then subjected to scintillation counting. All samples were assayed in triplicate.
GraphPad Prism software was used for non-linear regression and statistical analyses. […] For kinetic measurements (K m and B max values), the “one site – specific binding” equation was used, after subtracting transport or binding measurements from control transfected cells. Statistical significance was assessed using Student’s unpaired t-tests.

[7] = ref Tan et al., 2016, listed as urate

T2 sequence (Q3ZAV1 whole entry N35S/Y365F): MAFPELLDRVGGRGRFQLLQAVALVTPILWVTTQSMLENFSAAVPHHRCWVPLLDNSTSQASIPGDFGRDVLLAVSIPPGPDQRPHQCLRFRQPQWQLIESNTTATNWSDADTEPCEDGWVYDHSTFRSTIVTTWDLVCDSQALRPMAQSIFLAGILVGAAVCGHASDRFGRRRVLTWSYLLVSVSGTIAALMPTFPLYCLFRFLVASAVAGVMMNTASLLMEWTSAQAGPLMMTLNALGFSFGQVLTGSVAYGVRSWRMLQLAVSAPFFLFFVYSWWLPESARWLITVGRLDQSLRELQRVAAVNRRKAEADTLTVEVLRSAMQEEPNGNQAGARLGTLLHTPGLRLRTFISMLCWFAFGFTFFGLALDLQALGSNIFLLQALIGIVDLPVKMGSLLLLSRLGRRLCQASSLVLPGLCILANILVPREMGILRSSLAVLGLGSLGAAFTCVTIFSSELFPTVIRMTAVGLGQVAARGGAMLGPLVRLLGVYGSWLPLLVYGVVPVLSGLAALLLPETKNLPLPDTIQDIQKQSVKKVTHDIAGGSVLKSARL
T3 sequence (Q3ZAV1 whole entry N35S): as the sequence (Q3ZAV1 whole entry N35S/Y365F) above, with F365Y counted along it

O=c1[nH]c(=O)c2[nH]c(=O)[nH]c2[nH]1 [uric acid]
K m (µM), uric acid transport affinity (human URAT1 [1]; [7]): 122 µM
K m (µM), uric acid transport affinity (human URAT1 [1]; ref Tan et al., 2016): 122 ± 3 µM
K m (µM), uric acid transport affinity (Rat URAT1-N35S/Y365F; Rat URAT1-N35S/Y365F): 222 ± 16 µM
fold increase in urate affinity relative to rat URAT1 (Rat URAT1-N35S/Y365F; rat URAT1-N35S/Y365F): ~4 fold
K m (µM), uric acid transport affinity (Rat URAT1-N35S; Rat URAT1-N35S): 697 ± 93 µM
urate affinity phenotype relative to rat URAT1 (Rat URAT1-N35S; rat URAT1-N35S): no phenotype
K m (µM), uric acid transport affinity (rat URAT1-Y365F [2]): 560 ± 28 µM
K m (µM), uric acid transport affinity (rat URAT1; [7]): 857 µM
K m (µM), uric acid transport affinity (rat URAT1; ref Tan et al., 2016): 857 ± 6 µM
fold increase in urate affinity over rat URAT1 (rat URAT1-Y365F [3]): 1.5 fold
fold higher affinity for urate of human URAT1 relative to rat URAT1 (human URAT1 [4]): 7 fold

O=C1C(CC[S+]([O-])c2ccccc2)C(=O)N(c2ccccc2)N1c1ccccc1 (centres unmarked) [sulfinpyrazone, reference compound]
IC50 (human URAT1 [5]): 3.4 µM
fold reduced affinity compared to human URAT1 (human URAT1 h-F449Y; h-F449Y): 3 fold
IC50 (human URAT1 h-F449Y; h-F449Y binding site point mutant): 9.7 µM
fold increased affinity compared to human URAT1 (human URAT1 h-R477K; h-R477K): 2 fold
IC50 (human URAT1 h-R477K; h-R477K binding site point mutant): 2 µM
fold reduced affinity compared to human URAT1 (human URAT1 h-F241Y; h-F241Y): 7 fold
IC50 (human URAT1 h-F241Y; h-F241Y binding site point mutant): 23 µM
IC50 (human URAT1 [6]): 8.6 µM
Ki (human URAT1 [6]): 52 µM
mode of inhibition of 3H-verinurad binding (human URAT1 [6]): competitive mode of inhibition

CCc1oc2ccccc2c1C(=O)c1cc(Br)c(O)c(Br)c1 [benzbromarone, Benzbromarone]
mode of inhibition of 3H-verinurad binding (human URAT1 [6]): competitive mode of inhibition

CCCN(CCC)S(=O)(=O)c1ccc(C(=O)O)cc1 [probenecid]
mode of inhibition of 3H-verinurad binding (human URAT1 [6]): competitive mode of inhibition
